In PMC7998855 (Toxins, 2021):
“And” between values parts separate entries of the source, which are not always exact repeats. Equal entries are not always repeated.

Tests used:
[1] = system: differentiated C2BBe1 cells; assay type: cell-based, human; settings: for TEER, normalized to solvent control: SD
[2] = system: differentiated Caco-2 (C2BBe1) cell monolayer; assay type: cell-based, human; settings: 24 h incubation with toxin (CER 1-100 ng/mL, DON 0.1-10 µg/mL), then 0.1 mg/mL LY apical in HBSS pH 7.4, 1 h, 37 °C, basolateral fluorescence, 3 biological replicates
[3] = system: tight junction protein claudin-4 (CLD-4); assay: Immunofluorescence staining of claudin-4; assay type: cell-based, human; settings: 24 h, mean ± SD, 3 biological replicates, at least 9 optical fields
[4] = system: mucin 5AC; assay: Immunofluorescence staining of mucin 5AC; assay type: cell-based, human; settings: 24 h, 3 biological replicates; for mucin 5AC fluorescence intensity compared to the solvent control: mean ± SD, SD
[5] = system: differentiated Caco-2 (C2BBe1) cells
[6] = system: mucin 5AC; settings: 2 µM DON, 48 h incubation; cited from earlier work
Procedure: In addition to the investigation of barrier integrity, interest in the influence of mycotoxins on the intestinal mucus layer recently emerged, whereby data is still scarce. […] In addition to the different incubation times a ...

[7] = system: differentiated Caco-2 cells; assay: LC-MS/MS of CER in transwell compartments (uptake); assay type: in vitro ADME, human; settings: 24 h; for CER concentration in basolateral medium: apical application, mean ± SD, 3 biological replicates, SD

Molecule | TEER, normalized to solvent control [1] | Effect on paracellular passage of Lucifer Yellow [2] | CLD-4 immunofluorescence intensity in comparison to the solvent control ([3]; 10 µg/mL DON) [%] | mucin 5AC fluorescence intensity vs solvent control ([4]; DON alone (1 and 10 µg/mL)) | DON concentration in cell lysates [5] | Detection of DON in apical medium, basolateral medium and cell lysates [5] | mucin 5AC in cell lysates of Caco-2 cells [6] | TEER [1] | CLD-4 immunofluorescence intensity in comparison to the solvent control ([3]; 10 ng/mL CER) [%] | CLD-4 immunofluorescence intensity in comparison to the solvent control ([3]; 100 ng/mL CER) [%] | mucin 5AC fluorescence intensity compared to the solvent control ([4]; 10 ng/mL CER) [%] | mucin 5AC fluorescence intensity compared to the solvent control ([4]; 100 ng/mL CER) [%] | CER concentration in basolateral medium ([7]; 100 ng/mL CER with 10 µg/mL DON, transwell) [ng/mL medium] | CER concentration in basolateral medium ([7]; 100 ng/mL CER without DON, transwell) [ng/mL medium] | CER in cell lysates ([7]; 1-100 ng/mL CER with or without DON) | CER in the apical compartment ([7]; 1-100 ng/mL CER with or without DON, transwell)
CC1=C[C@H]2O[C@@H]3[C@H](O)C[C@](C)([C@@]2(CO)[C@H](O)C1=O)[C@]31CO1 [DON, deoxynivalenol] | 116 ± 12% and 116 ± 6% | no significant effects | 127 ± 38 | no significant effect | < LOD | detected in all compartments and incubation conditions, except the cell lysates treated with the lowest toxin concentration | upregulation of mucin 5AC |  |  |  |  |  |  |  |  | 
cereulide | 193 ± 7% and 163 ± 34% | no significant effects |  |  |  |  |  | no impact | 173 ± 41 | 138 ± 49 | 80 ± 14 | 73 ± 20 | 0.07 ± 0.05 | 0.04 ± 0.02 | detected in the cell lysates of all samples | quantified in all treatment conditions
